Results from US11548900B2, “Oxazino-quinazoline and oxazino-quinoline type compound, preparation method and uses thereof” (BEIJING SCITECH-MQ PHARMACEUTICALS LIMITED, priority 2018, dated 2023).

Assays:
HER2 kinase = HER2 kinase (Homo sapiens (Human), UniProt P04626); assay: Inhibition of HER2 kinase activity (ULight-labeled PolyGT substrate); assay type: biochemical; conditions: HER2 kinase 10 nM, ATP 10 μM, 2 hours
Procedure: (§1) The assay for the inhibition of EGFR and HER2 kinase activity by small molecular compounds was carried out using the method as follows:
(§2) 1) Dilution of the compounds
(§3) In a 96-well plate a, the compounds were diluted with DMSO using a 3-fold gradient dilution to form 11 concentrations, the 12th concentration is pure DMSO (as a positive control); and in a new 96-well plate b the above solutions were diluted 25 times with ultrapure water (DMSO concentration is 4%).
(§4) 2) Transferring the compounds to 384-well plate
(§5) The compound solutions diluted with ultrapure water in the 96-well plate b above was transferred to the corresponding wells of a 384-well plate in duplicate.
(§6) 3) Addition of 4×kinase solution: 2.5 μl of the above 4× kinase solution was taken using multichannel pipette and added to the corresponding reaction wells of the 384-well plate, mixed well and pre-reacted at room temperature for 5 minutes.
(§7) 4) Addition of 2×substrate/ATP mixed solution: 5 μl of the above 2×substrate/ATP mixed solution was taken using multichannel pipette and added to the corresponding reaction wells of the 384-well plate.
(§8) 5) Negative control: negative control wells were set in the 384-well plate, and 2.5 μl 4×substrate, 2.5 μl 4×enzyme solution, 2.5 μl 1×Kinase Assay Buffer and 2.5 μl ultrapure water containing 4% DMSO were added to each well.
(§9) 6) Mixed by centrifugation and kept at room temperature for 2 hours in the dark.
(§10) 7) Termination of the enzymatic reaction:
(§11) 5 μl of the above 4× stop solution was pipetted to the corresponding wells of the 384-well plate, centrifuged and mixed, and reacted at room temperature for 5 minutes.
(§12) 5 μl of the above 4× detection solution was pipetted into the corresponding wells of the 384-well plate, centrifuged and mixed, and reacted at room temperature for 1 hour.
(§13) 9) The 384-well plate was placed into a microplate reader and the signal was detected using the corresponding program.
(§14) 10) IC50 analysis: Well reading value=10000*EU665 value/EU615 value Inhibition rate=(reading value of positive control well−reading value of experimental well)/(reading value of positive control well−reading value of negative control well)*100% Corresponding IC50s can be calculated by entering the drug concentrations and the corresponding inhibition rates into GraphPad Prism 5.
Conditions of experiment for screening HER2 kinase inhibitory molecules:
The final concentration of HER2 kinase in the reaction system is 10 nM, the final concentration of ATP is 10 μM, the final concentration of substrate ULight™-labeled PolyGT is 100 nM, and the enzymatic reaction time is 2 hours.
(§15) The maximum final concentration of the compound in the reaction system is 2.5 μM, 11 concentrations were made with a 3-fold gradient dilution, and the minimal final concentration is 0.042 nM. The final concentration of DMSO is 1%.

EGFR kinase = EGFR kinase (Homo sapiens (Human), UniProt P00533); assay: Inhibition of EGFR kinase activity (ULight-labeled JAK-1 (Tyr1023) peptide substrate); assay type: biochemical; conditions: EGFR kinase 0.35 nM, ATP 150 μM, 2 hours
Procedure: as §1, §2, §3, §4, §5, §6, §7, §8, §9, §10, §11, §12, §13, §14
Conditions of experiment for screening EGFR kinase inhibitory molecules:
The final concentration of EGFR kinase in the reaction system is 0.35 nM, and the final concentration of ATP is 150 μM, the final concentration of substrate ULight™-labeled JAK-1 (Tyr1023) Peptide is 100 nM, and the enzymatic reaction time is 2 hours.
as §15

BT474 cells = assay: Inhibition of cell proliferation, BT474 (CCK-8, 72 h); assay type: cell-based; conditions: Homo sapiens, BT-474, 72 h incubation
Procedure: The assay for the inhibition of cell proliferation by small molecular compounds was carried out using the method as follows:
1. 600 μL pancreatin was added to a T75 cell culture flask, which was digested in a 37° C. incubator for about 1 min before 5 mL of DMEM complete culture solution was added, blew evenly, transferred to a 15 mL centrifuge tube, and centrifuged at 1000 rpm for 4 min;
2. The supernatant was removed and 5 mL DMEM complete culture solution was added, blew evenly, and 10 μL cell suspension was taken and mixed with 10 μL 0.4% Trypan Blue, and counted using a cell counter;
3. BT474 and HCC827 cell lines were seeded in 96-well plates at a cell density of 10,000 and 3000 cells/well/80 μL, respectively, and cultured overnight. Only sterile water was added to the 36 wells on the periphery of the 96-well plate without adding cells, and only the 60 wells in the center of the 96-well plate were used for cell assays and controls;
4. Dilution of compounds: the compounds were diluted with a 3-fold dilution to make 10 concentrations in total with an initial concentration of 10 mM;
5. 20 μL of different compounds with different concentrations were added to each well, and 20 μL of complete culture solution was added to the remaining wells. The final concentration of DMSO in each well is 0.25%;
6. After 72 h of incubation, 10 μL CCK-8 reagent was added to each well, and incubated at 37° C. for 1-2 h; and the OD value was read at 450 nm;
7. Cell survival rate (%)=[(As−Ab)/(Ac−Ab)]*100%
As: Assay well (medium containing cell, CCK-8, compound)
Ac: Control well (medium containing cell, CCK-8)
Ab: Blank well (CCK-8, medium without cell and compound)
8. The value was imported into Graphpad Prism5 software for the calculation of IC50s (compound concentration at which 50% maximum survival rate is observed).

HER2 kinase, sequence (P04626 23-1255): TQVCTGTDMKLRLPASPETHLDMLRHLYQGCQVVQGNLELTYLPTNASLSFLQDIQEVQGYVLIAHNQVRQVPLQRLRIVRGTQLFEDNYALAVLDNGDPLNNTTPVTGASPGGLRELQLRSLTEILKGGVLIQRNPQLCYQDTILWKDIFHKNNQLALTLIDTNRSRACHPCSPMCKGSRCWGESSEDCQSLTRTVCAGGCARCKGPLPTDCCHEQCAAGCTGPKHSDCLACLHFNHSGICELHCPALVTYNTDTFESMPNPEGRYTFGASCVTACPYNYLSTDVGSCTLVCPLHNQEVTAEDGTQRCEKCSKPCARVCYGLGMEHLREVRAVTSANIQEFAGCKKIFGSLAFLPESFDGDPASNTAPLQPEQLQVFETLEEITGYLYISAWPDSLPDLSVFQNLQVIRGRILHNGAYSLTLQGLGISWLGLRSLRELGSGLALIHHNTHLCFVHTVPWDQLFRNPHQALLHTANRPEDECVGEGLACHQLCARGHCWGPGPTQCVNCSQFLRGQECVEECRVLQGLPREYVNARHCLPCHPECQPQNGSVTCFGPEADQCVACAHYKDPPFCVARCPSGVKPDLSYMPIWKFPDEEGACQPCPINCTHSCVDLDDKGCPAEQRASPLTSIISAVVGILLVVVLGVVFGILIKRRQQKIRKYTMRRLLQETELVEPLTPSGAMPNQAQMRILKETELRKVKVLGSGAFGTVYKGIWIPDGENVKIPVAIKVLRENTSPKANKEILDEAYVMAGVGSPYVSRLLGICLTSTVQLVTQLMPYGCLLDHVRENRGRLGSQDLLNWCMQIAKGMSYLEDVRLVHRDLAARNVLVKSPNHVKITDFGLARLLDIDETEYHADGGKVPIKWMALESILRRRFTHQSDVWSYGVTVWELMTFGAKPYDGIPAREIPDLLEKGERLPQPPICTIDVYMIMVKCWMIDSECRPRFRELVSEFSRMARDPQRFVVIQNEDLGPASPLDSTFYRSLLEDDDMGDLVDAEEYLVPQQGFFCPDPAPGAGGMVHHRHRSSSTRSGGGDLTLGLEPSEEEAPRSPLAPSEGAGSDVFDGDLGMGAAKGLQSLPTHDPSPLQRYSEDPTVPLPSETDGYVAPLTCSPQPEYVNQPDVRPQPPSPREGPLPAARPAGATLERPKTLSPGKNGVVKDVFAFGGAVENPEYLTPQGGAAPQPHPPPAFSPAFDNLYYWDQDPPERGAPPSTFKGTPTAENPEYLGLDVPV
EGFR kinase, sequence (P00533 25-1210): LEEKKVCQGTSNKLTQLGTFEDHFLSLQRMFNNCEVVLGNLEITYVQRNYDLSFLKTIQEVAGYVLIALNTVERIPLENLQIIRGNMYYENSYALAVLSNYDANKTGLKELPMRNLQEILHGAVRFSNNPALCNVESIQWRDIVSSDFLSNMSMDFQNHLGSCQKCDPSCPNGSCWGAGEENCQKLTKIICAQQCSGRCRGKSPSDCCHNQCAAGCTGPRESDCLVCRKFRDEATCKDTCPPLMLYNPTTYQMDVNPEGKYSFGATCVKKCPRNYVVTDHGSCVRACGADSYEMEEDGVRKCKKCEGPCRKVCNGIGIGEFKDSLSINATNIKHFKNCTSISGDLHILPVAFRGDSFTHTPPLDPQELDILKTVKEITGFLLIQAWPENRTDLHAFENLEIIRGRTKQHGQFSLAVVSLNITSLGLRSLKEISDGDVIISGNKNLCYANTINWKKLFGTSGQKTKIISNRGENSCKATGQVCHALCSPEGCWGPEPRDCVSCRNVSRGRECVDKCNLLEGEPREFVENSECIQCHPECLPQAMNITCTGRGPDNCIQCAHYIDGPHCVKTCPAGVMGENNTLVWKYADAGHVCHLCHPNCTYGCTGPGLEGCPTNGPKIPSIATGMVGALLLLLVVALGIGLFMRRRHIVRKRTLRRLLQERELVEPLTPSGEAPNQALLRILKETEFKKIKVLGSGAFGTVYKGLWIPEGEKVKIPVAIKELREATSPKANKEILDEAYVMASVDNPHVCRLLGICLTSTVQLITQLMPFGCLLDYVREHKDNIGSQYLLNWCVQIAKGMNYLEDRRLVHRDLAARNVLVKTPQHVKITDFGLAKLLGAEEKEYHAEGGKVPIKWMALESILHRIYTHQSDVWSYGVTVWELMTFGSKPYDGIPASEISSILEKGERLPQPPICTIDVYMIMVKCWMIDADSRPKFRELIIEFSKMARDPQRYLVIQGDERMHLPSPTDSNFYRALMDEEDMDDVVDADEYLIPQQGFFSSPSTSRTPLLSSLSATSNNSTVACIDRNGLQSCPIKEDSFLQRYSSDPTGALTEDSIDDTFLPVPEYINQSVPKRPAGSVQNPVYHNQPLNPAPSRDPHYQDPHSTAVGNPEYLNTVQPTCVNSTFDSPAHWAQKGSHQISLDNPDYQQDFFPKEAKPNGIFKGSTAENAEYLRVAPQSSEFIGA

Compound: C=CC(=O)N1CCOc2c1ccc1ncnc(Nc3ccc(Oc4ccccc4)cc3)c21 [Example 2, 1-(10-((4-phenoxyphenyl)amino)-2,3-dihydro-4H-[1,4]oxazino[2,3-f]quinazolin-4-yl)prop-2-en-1-one]
- IC50 (HER2 kinase): ≤ 50 nM
- IC50 (EGFR kinase): ≤ 50 nM

Compound: C=CC(=O)N1CCOc2c1ccc1ncnc(Nc3ccc(OCc4cccc(F)c4)c(Cl)c3)c21 [Example 3]
- IC50 (HER2 kinase): ≤ 50 nM
- IC50 (EGFR kinase): ≤ 50 nM

Compound: C=CC(=O)N1CCOc2c1ccc1ncnc(Nc3ccc(OCc4ccccn4)c(Cl)c3)c21 [Example 4, 1-(10-((3-chloro-4-(pyridin-2-ylmethoxy)phenyl)amino)-2,3-dihydro-4H-[1,4]oxazino[2,3-f]quinazolin-4-yl)prop-2-en-1-one]
- IC50 (HER2 kinase): ≤ 50 nM
- IC50 (EGFR kinase): ≤ 50 nM

Compound: C=CC(=O)N1CCOc2c1ccc1ncnc(Oc3ccc(Oc4ccccc4)cc3)c21 [Example 33, 1-(10-(4-phenoxyphenoxy)-2,3-dihydro-4H-[1,4]oxazino[2,3-f]quinazolin-4-yl)prop-2-en-1-one]
- IC50 (HER2 kinase): ≤ 50 nM
- IC50 (EGFR kinase): ≤ 50 nM

Compound: C=CC(=O)N1CCOc2c1ccc1ncnc(Oc3ccc(OCc4ccccn4)c(Cl)c3)c21 [Example 34, 1-(10-(3-chloro-4-(pyridin-2-ylmethoxy)phenoxy)-2,3-dihydro-4H-[1,4]oxazino[2,3-f]quinazolin-4-yl)prop-2-en-1-one]
- IC50 (HER2 kinase): ≤ 50 nM
- IC50 (EGFR kinase): ≤ 50 nM

Compound: C=CC(=O)N1CCOc2c1ccc1ncnc(Oc3ccc(OCc4cccc(F)c4)c(Cl)c3)c21 [Example 35, 1-(10-(3-chloro-4-((3-fluorobenzyl)oxy)phenoxy)-2,3-dihydro-4H-[1,4]oxazino[2,3-f]quinazolin-4-yl)prop-2-en-1-one]
- IC50 (HER2 kinase): ≤ 50 nM
- IC50 (EGFR kinase): ≤ 50 nM

Compound: C=CC(=O)N1CCOc2c1ccc1ncnc(Oc3ccc(Oc4ccc(Cl)cc4)cc3)c21 [Example 36, 1-(10-(4-(4-chlorophenoxy)phenoxy)-2,3-dihydro-4H-[1,4]oxazino[2,3-f]quinazolin-4-yl)prop-2-en-1-one]
- IC50 (HER2 kinase): ≤ 50 nM

Compound: C=CC(=O)N1CCOc2c1ccc1ncnc(Oc3ccc(Oc4ccc(F)cc4)cc3)c21 [Example 37, 1-(10-(4-(4-fluorophenoxy)phenoxy)-2,3-dihydro-4H-[1,4]oxazino[2,3-f]quinazolin-4-yl)prop-2-en-1-one]
- IC50 (HER2 kinase): ≤ 50 nM
- IC50 (EGFR kinase): ≤ 50 nM

Compound: C=CC(=O)N1CCOc2c1ccc1ncnc(Oc3ccc(Oc4cc(Cl)ccc4Cl)cc3)c21 [Example 38, 1-(10-(4-(2,5-dichlorophenoxy)phenoxy)-2,3-dihydro-4H-[1,4]oxazino[2,3-f]quinazolin-4-yl)prop-2-en-1-one]
- IC50 (HER2 kinase): ≤ 50 nM

Compound: C=CC(=O)N1CCOc2c1ccc1ncnc(Oc3ccc(OCc4ccccn4)cc3)c21 [Example 39, 1-(10-(4-(pyridin-2-ylmethoxy)phenoxy)-2,3-dihydro-4H-[1,4]oxazino[2,3-f]quinazolin-4-yl)prop-2-en-1-one]
- IC50 (HER2 kinase): ≤ 50 nM
- IC50 (EGFR kinase): ≤ 50 nM

Compound: O=C(/C=C/CN1CCCCC1)N1CCOc2c1ccc1ncnc(Nc3ccc(Oc4ccccc4)cc3F)c21 [Example 97, (E)-1-(10-((2-fluoro-4-phenoxyphenyl)amino)-2,3-dihydro-4H-[1,4]oxazino[2,3-f]quinazolin-4-yl)-4-(piperidin-1-yl)but-2-en-1-one]
- IC50 (HER2 kinase): ≤ 50 nM

Compound: O=C(/C=C/CN1CCCCC1)N1CCOc2c1ccc1ncnc(Nc3ccc(Oc4ccccc4)c(F)c3)c21 [Example 98, (E)-1-(10-((3-fluoro-4-phenoxyphenyl)amino)-2,3-dihydro-4H-[1,4]oxazino[2,3-f]quinazolin-4-yl)-4-(piperidin-1-yl)but-2-en-1-one]
- IC50 (HER2 kinase): ≤ 50 nM

Compound: CN1CCC[C@@H]1/C=C/C(=O)N1CCOc2c1ccc1ncnc(Nc3ccc(OCc4ccccn4)c(Cl)c3)c21 [Example 114]
- IC50 (HER2 kinase): ≤ 50 nM
- IC50 (BT474 cells): ≤ 50 nM

Compound: O=C(/C=C/CN1CCC(O)CC1)N1CCOc2c1ccc1ncnc(Nc3ccc(OCc4ccccn4)c(Cl)c3)c21 [Example 115, (E)-1-(10-((3-chloro-4-(pyridin-2-ylmethoxy)phenyl)amino)-2,3-dihydro-4H-[1,4]oxazino[2,3-f]quinazolin-4-yl)-4-(4-hydroxypiperidin-1-yl)but-2-en-1-one]
- IC50 (HER2 kinase): ≤ 50 nM
- IC50 (BT474 cells): ≤ 50 nM

Compound: O=C(/C=C/CN1CCC(CO)CC1)N1CCOc2c1ccc1ncnc(Nc3ccc(OCc4ccccn4)c(Cl)c3)c21 [Example 117, (E)-1-(10-((3-chloro-4-(pyridin-2-ylmethoxy)phenyl)amino)-2,3-dihydro-4H-[1,4]oxazino[2,3-f]quinazolin-4-yl)-4-(4-(hydroxymethyl)piperidin-1-yl)but-2-en-1-one]
- IC50 (HER2 kinase): ≤ 50 nM
- IC50 (BT474 cells): ≤ 50 nM

Compound: O=C(/C=C/CN1CCC(F)CC1)N1CCOc2c1ccc1ncnc(Nc3ccc(OCc4ccccn4)c(Cl)c3)c21 [Example 118, (E)-1-(10-((3-chloro-4-(pyridin-2-ylmethoxy)phenyl)amino)-2,3-dihydro-4H-[1,4]oxazino[2,3-f]quinazolin-4-yl)-4-(4-fluoropiperidin-1-yl)but-2-en-1-one]
- IC50 (HER2 kinase): ≤ 50 nM
- IC50 (BT474 cells): ≤ 50 nM

Compound: CN(C/C=C/C(=O)N1CCOc2c1ccc1ncnc(Nc3ccc(OCc4ccccn4)c(Cl)c3)c21)CCCO [Example 120, (E)-1-(10-((3-chloro-4-(pyridin-2-ylmethoxy)phenyl)amino)-2,3-dihydro-4H-[1,4]oxazino[2,3-f]quinazolin-4-yl)-4-((3-hydroxypropyl)(methyl)amino)but-2-en-1-one]
- IC50 (HER2 kinase): ≤ 50 nM
- IC50 (BT474 cells): ≤ 50 nM

Compound: C[C@H]1CN(C)CCN1C/C=C/C(=O)N1CCOc2c1ccc1ncnc(Nc3ccc(OCc4ccccn4)c(Cl)c3)c21 [Example 121, (S,E)-1-(10-((3-chloro-4-(pyridin-2-ylmethoxy)phenyl)amino)-2,3-dihydro-4H-[1,4]oxazino[2,3-f]quinazolin-4-yl)-4-(2,4-dimethylpiperazin-1-yl)but-2-en-1-one]
- IC50 (HER2 kinase): ≤ 50 nM
- IC50 (BT474 cells): ≤ 50 nM

Compound: CN(C/C=C/C(=O)N1CCOc2c1ccc1ncnc(Nc3ccc(OCc4ccccn4)c(Cl)c3)c21)CCO [Example 122, (E)-1-(10-((3-chloro-4-(pyridin-2-ylmethoxy)phenyl)amino)-2,3-dihydro-4H-[1,4]oxazino[2,3-f]quinazolin-4-yl)-4-((2-hydroxyethyl)(methyl)amino)but-2-en-1-one]
- IC50 (HER2 kinase): ≤ 50 nM
- IC50 (BT474 cells): ≤ 50 nM

Compound: C[C@@H]1CN(C)CCN1C/C=C/C(=O)N1CCOc2c1ccc1ncnc(Nc3ccc(OCc4ccccn4)c(Cl)c3)c21 [Example 123, (R,E)-1-(10-((3-chloro-4-(pyridin-2-ylmethoxy)phenyl)amino)-2,3-dihydro-4H-[1,4]oxazino[2,3-f]quinazolin-4-yl)-4-(2,4-dimethylpiperazin-1-yl)but-2-en-1-one]
- IC50 (HER2 kinase): ≤ 50 nM
- IC50 (BT474 cells): ≤ 50 nM
